What was measured:
[1] = target: Autotaxin (ENPP2) (Rattus norvegicus) (UniProt Q64610); assay: Inhibition of LPA in rat plasma after 18 hrs by LC-MS/MS analysis
[2] = target: Autotaxin (ENPP2) (Homo sapiens) (UniProt Q13822); assay: Inhibition of LPA in human plasma after 18 hrs by LC-MS/MS analysis

Compound: C[C@@H](c1ccc2ccc(O[C@H]3CC[C@@H](C(F)(F)F)CC3)c(C(F)(F)F)c2c1)N1C2CCC1CC(C(=O)O)C2 (some centres not stated)
- IC50 [1]: 47 nM
- IC50 [2]: 53 nM
